Measured values as given in patent US4698352A, “4-oxo-1,4-dihydronicotinic acid derivatives, salts thereof, and antibacterial agents containing the same” (Toyama Chemical Co., Ltd., priority 1982, dated 1987).
Converted amounts (≈) assume the structure as drawn. Where two headings read alike, the source gives them in different places.

Experiments:
Assay in all cases: Antibacterial activity (MIC), agar dilution
Format in all cases: cell-based
Pro. vulgaris GN76** = settings: Proteus vulgaris
Description: (§1) The amount of bacteria inoculated was 10^4 cells per plate (10^6 cells per ml).
(§2) ** Cephalospolinase-producing bacteria

E. coli GN5482** = settings: Escherichia coli
Description: as §1, §2

Ps. aeruginosa GN918** = settings: Pseudomonas aeruginosa, Ps. aeruginosa GN918, cephalospolinase-producing, 10^6 cells per ml
Description: as §1, §2

Ps. aeruginosa IFO3445 = settings: Pseudomonas aeruginosa
Description: as §1

Aci. antitratus A-6 = settings: 20 h, Aci. antitratus A-6; 10^6 cells per ml; 37° C., 20 hours; read-out: MIC
Description: as §1

Kl. pneumoniae Y-41 = settings: Klebsiella pneumoniae, Y41, 10^6 cells per ml, 37° C., 20 hours, read-out: MIC
Description: as §1

Pro. morganii T-216 = settings: Morganella morganii, 37° C.
Description: as §1

E. coli TK-111 = settings: Escherichia coli, TK111, 20 h, E. coli TK-111; 10^6 cells per ml; 37° C., 20 hours; read-out: MIC
Description: as §1

St. aureus FDA209P = settings: Staphylococcus aureus, FDA209P, 20 h
Description: as §1

Pro. mirabilis T-111 = settings: Proteus mirabilis, 37° C.
Description: as §1

E. coli NIHJ JC-2 = settings: Escherichia coli, NIHJJC2, 20 h
Description: as §1

Ent. cloacae IID977 = settings: Enterobacter cloacae, IID977, 20 h, Ent. cloacae IID977; 10^6 cells per ml; 37° C., 20 hours; read-out: MIC
Description: as §1

Pro. vulgaris GN3027 = settings: Proteus vulgaris, GN3027, 20 h, Pro. vulgaris GN3027; 10^6 cells per ml; 37° C., 20 hours; read-out: MIC
Description: as §1

Kl. pneumoniae Y-50 = settings: Klebsiella pneumoniae, Y50, 20 h, 10^6 cells per ml, 37° C., read-out: MIC
Description: as §1

Ps. aeruginosa S-68 = settings: Pseudomonas aeruginosa
Description: as §1

Kl. pneumoniae Y-4* = settings: Klebsiella pneumoniae, 20 h, Kl. pneumoniae Y-4, penicillinase-producing; 10^6 cells per ml; read-out: MIC
Description: as §1
(§3) * Penicillinase-producing bacteria

E. coli TK-3* = settings: Escherichia coli, 20 h, E. coli TK-3, penicillinase-producing; 10^6 cells per ml; read-out: MIC
Description: as §1, §3

St. aureus F-137* = settings: Staphylococcus aureus, 20 h, St. aureus F-137, penicillinase-producing; 10^6 cells per ml; read-out: MIC
Description: as §1, §3

Ps. aeruginosa GN3379* = settings: Pseudomonas aeruginosa, Ps. aeruginosa GN3379, penicillinase-producing, 10^6 cells per ml
Description: as §1, §3

[1] = 20 h, Pro. vulgaris GN76, cephalospolinase-producing, 10^6 cells per ml, read-out: MIC
[2] = 20 h, E. coli GN5482, cephalospolinase-producing, 10^6 cells per ml, read-out: MIC
[3] = T216, 10^6 cells per ml, 20 hours, read-out: MIC
[4] = St. aureus FDA209P, 10^6 cells per ml, 37° C., 20 hours, read-out: MIC
[5] = E. coli NIHJ JC-2, 10^6 cells per ml, 37° C., 20 hours, read-out: MIC
[6] = Ps. aeruginosa IFO3445, 10^6 cells per ml, 37° C., 20 hours, read-out: MIC
[7] = S68, Ps. aeruginosa S-68, 10^6 cells per ml, 37° C., 20 hours, read-out: MIC

Row | SMILES | MIC (Pro. vulgaris GN76**; [1]) | MIC (E. coli GN5482**; [2]) | MIC (Ps. aeruginosa GN918**; 20 h, read-out: MIC) | MIC (Aci. antitratus A-6) | MIC (Kl. pneumoniae Y-41) | MIC (Pro. morganii T-216; [3]) | MIC (E. coli TK-111) | MIC (St. aureus FDA209P; [4]) | MIC (Pro. mirabilis T-111; T111, 20 h, 10^6 cells per ml) | MIC (E. coli NIHJ JC-2; [5]) | MIC (Ent. cloacae IID977) | MIC (Pro. vulgaris GN3027) | MIC (Kl. pneumoniae Y-50) | MIC (Kl. pneumoniae Y-4*) | MIC (E. coli TK-3*) | MIC (St. aureus F-137*) | MIC (Ps. aeruginosa GN918**; GN918, 20 h) | MIC (Ps. aeruginosa IFO3445; [6]) | MIC (Ps. aeruginosa S-68; [7]) | MIC (Ps. aeruginosa GN3379*; 20 h, read-out: MIC) | also measured
1 | O=C(O)c1cn(-c2ccc(O)cc2)c(-c2ccc(-c3ccccn3)s2)cc1=O | 0.78 µg/mL (≈ 2 µM) | ≤ 0.05 µg/mL | 1.56 µg/mL (≈ 4 µM) | 0.78 µg/mL (≈ 2 µM) | 3.13 µg/mL (≈ 8.02 µM) | 1.56 µg/mL (≈ 4 µM) | ≤ 0.05 µg/mL | 0.2 µg/mL (≈ 0.512 µM) | 3.13 µg/mL (≈ 8.02 µM) | 0.39 µg/mL (≈ 0.999 µM) | 1.56 µg/mL (≈ 4 µM) | 0.1 µg/mL (≈ 0.256 µM) | 0.78 µg/mL (≈ 2 µM) | 3.13 µg/mL (≈ 8.02 µM) | 0.78 µg/mL (≈ 2 µM) | 0.2 µg/mL (≈ 0.512 µM) |  |  |  |  | MIC (Ps. aeruginosa IFO3445; IFO3445, 20 h): 3.13 µg/mL (≈ 8.02 µM); MIC (Ps. aeruginosa S-68; S68, 20 h): 3.13 µg/mL (≈ 8.02 µM); MIC (Ps. aeruginosa GN3379*; GN3379, 20 h): 3.13 µg/mL (≈ 8.02 µM)
2 | CN1CCOc2cc(-c3cc(=O)c(C(=O)O)cn3-c3ccc(O)cc3F)ccc21 |  | ≤ 0.05 µg/mL |  | 0.39 µg/mL (≈ 0.984 µM) | 3.13 µg/mL (≈ 7.9 µM) | 1.56 µg/mL (≈ 3.94 µM) | 0.1 µg/mL (≈ 0.252 µM) | 0.39 µg/mL (≈ 0.984 µM) | 3.13 µg/mL (≈ 7.9 µM) | 0.39 µg/mL (≈ 0.984 µM) | 0.78 µg/mL (≈ 1.97 µM) | 0.39 µg/mL (≈ 0.984 µM) | 0.39 µg/mL (≈ 0.984 µM) | 3.13 µg/mL (≈ 7.9 µM) | 0.78 µg/mL (≈ 1.97 µM) | 0.2 µg/mL (≈ 0.505 µM) | 3.13 µg/mL (≈ 7.9 µM) | 6.25 µg/mL (≈ 15.8 µM) | 6.25 µg/mL (≈ 15.8 µM) | 12.5 µg/mL (≈ 31.5 µM) | MIC (Pro. vulgaris GN76**; GN76, 20 h): 3.13 µg/mL (≈ 7.9 µM)
3 | CN(C)c1ccc(-c2cc(=O)c(C(=O)O)cn2-c2cccc(O)c2)cc1 | 0.78 µg/mL (≈ 2.23 µM) | ≤ 0.05 µg/mL | 12.5 µg/mL (≈ 35.7 µM) | 0.39 µg/mL (≈ 1.11 µM) | 1.56 µg/mL (≈ 4.45 µM) |  | 0.1 µg/mL (≈ 0.285 µM) | 0.2 µg/mL (≈ 0.571 µM) | 3.13 µg/mL (≈ 8.93 µM) | 0.39 µg/mL (≈ 1.11 µM) | 0.78 µg/mL (≈ 2.23 µM) | 0.2 µg/mL (≈ 0.571 µM) | 0.39 µg/mL (≈ 1.11 µM) | 3.13 µg/mL (≈ 8.93 µM) | 0.39 µg/mL (≈ 1.11 µM) | 0.2 µg/mL (≈ 0.571 µM) |  | 12.5 µg/mL (≈ 35.7 µM) | 6.25 µg/mL (≈ 17.8 µM) | 6.25 µg/mL (≈ 17.8 µM) | MIC (Pro. morganii T-216; T216, 20 h, 10^6 cells per ml): 1.56 µg/mL (≈ 4.45 µM)
4 | CC1Cc2cc(-c3cc(=O)c(C(=O)O)cn3-c3ccc(O)cc3)ccc2O1 (centres unmarked) | 3.13 µg/mL (≈ 8.61 µM) |  |  | 3.13 µg/mL (≈ 8.61 µM) | 6.25 µg/mL (≈ 17.2 µM) | 3.13 µg/mL (≈ 8.61 µM) | 0.78 µg/mL (≈ 2.15 µM) |  | 12.5 µg/mL (≈ 34.4 µM) |  | 3.13 µg/mL (≈ 8.61 µM) | 0.78 µg/mL (≈ 2.15 µM) | 1.56 µg/mL (≈ 4.29 µM) | 12.5 µg/mL (≈ 34.4 µM) | 3.13 µg/mL (≈ 8.61 µM) | 3.13 µg/mL (≈ 8.61 µM) | 12.5 µg/mL (≈ 34.4 µM) | 50 µg/mL (≈ 138 µM) | 25 µg/mL (≈ 68.8 µM) | 25 µg/mL (≈ 68.8 µM) | MIC (E. coli GN5482**; GN5482, 20 h): 1.56 µg/mL (≈ 4.29 µM); MIC (St. aureus FDA209P): 1.56 µg/mL (≈ 4.29 µM); MIC (E. coli NIHJ JC-2): 1.56 µg/mL (≈ 4.29 µM)
5 | Cc1ccc(-c2ccc(-c3cc(=O)c(C(=O)O)cn3-c3ccc(O)cc3)cc2)s1 | 0.39 µg/mL (≈ 0.967 µM) | ≤ 0.05 µg/mL |  | ≤ 0.05 µg/mL | 1.56 µg/mL (≈ 3.87 µM) | 0.78 µg/mL (≈ 1.93 µM) | 0.1 µg/mL (≈ 0.248 µM) | ≤ 0.05 µg/mL |  | 0.2 µg/mL (≈ 0.496 µM) | 0.78 µg/mL (≈ 1.93 µM) | 0.1 µg/mL (≈ 0.248 µM) | 0.78 µg/mL (≈ 1.93 µM) | 1.56 µg/mL (≈ 3.87 µM) | 0.39 µg/mL (≈ 0.967 µM) | ≤ 0.05 µg/mL | 1.56 µg/mL (≈ 3.87 µM) | 6.25 µg/mL (≈ 15.5 µM) | 3.13 µg/mL (≈ 7.76 µM) | 6.25 µg/mL (≈ 15.5 µM) | MIC (Pro. mirabilis T-111; T111, 10^6 cells per ml, 20 hours, read-out: MIC): 0.39 µg/mL (≈ 0.967 µM)
